Assay results published in patent US8969362B2 (priority 2004, dated 2015).

Test system: not given
Assay: not given
Details: not given

Row | Compound | melting point [°C]
1 | CCCCOc1nc(N)c2[nH]c(=O)n(CCCNCc3cccc(C(=O)OC)c3)c2n1 [Example 2-3, Methyl 3-({[3-(6-amino-2-butoxy-8-oxo-7,8-dihydro-9H-purin-9-yl)propyl]amino}methyl)benzoate] | 214 to 218
2 | CCCCOc1nc(N)c2[nH]c(=O)n(CCCCNS(=O)(=O)c3ccc(CCC(=O)OC)cc3)c2n1 [Example 2-11, Methyl 3-[4-({[4-(6-amino-2-butoxy-8-oxo-7,8-dihydro-9H-purin-9-yl)butyl]amino}sulfonyl)phenyl]propanoate] | 150 to 152
3 | CCCCOc1nc(N)c2[nH]c(=O)n(CCCCNS(=O)(=O)c3ccc(CCC(=O)O)cc3)c2n1 [Example 2-12, 3-[4-({[4-(6-Amino-2-butoxy-8-oxo-7,8-dihydro-9H-purin-9-yl)butyl]amino}sulfonyl)phenyl]propionic acid] | 210 to 211
4 | CCCCOc1nc(N)c2[nH]c(=O)n(CCCCN(CCN3CCCC3)S(=O)(=O)c3cccc(CC(=O)O)c3)c2n1 [Example 2-14, (3-{[[4-(6-Amino-2-butoxy-8-oxo-7,8-dihydro-9H-purin-9-yl)butyl](2-pyrrolidin-1-ylethyl)amino]sulfonyl}phenyl)acetic acid] | 192 to 193
5 | CCCCOc1nc(N)c2[nH]c(=O)n(CCCCN(CCOC)S(=O)(=O)c3cccc(CC(=O)OC)c3)c2n1 [Example 2-15, Methyl (3-{[[4-(6-amino-2-butoxy-8-oxo-7,8-dihydro-9H-purin-9-yl)butyl](2-methoxyethyl)amino]sulfonyl}phenyl)acetate] | 182 to 183
6 | CCCCOc1nc(N)c2[nH]c(=O)n(CCCCN(CCOC)S(=O)(=O)c3cccc(CC(=O)O)c3)c2n1 [Example 2-16, (3-{[[4-(6-Amino-2-butoxy-8-oxo-7,8-dihydro-9H-purin-9-yl)butyl](2-methoxyethyl)amino]sulfonyl}phenyl)acetic acid] | 171 to 172
7 | CCCCOc1nc(N)c2[nH]c(=O)n(CCCCN(C)S(=O)(=O)c3cccc(CC(=O)O)c3)c2n1 [Example 2-18, (3-{[[4-(6-Amino-2-butoxy-8-oxo-7,8-dihydro-9H-purin-9-yl)butyl](methyl)amino]sulfonyl}phenyl)acetic acid] | 171 to 172
8 | CCCCOc1nc(N)c2[nH]c(=O)n(CCCCN(CC(C)(C)CN(C)C)S(=O)(=O)c3cccc(CC(=O)O)c3)c2n1 [Example 2-20, [3-({[4-(6-Amino-2-butoxy-8-oxo-7,8-dihydro-9H-purin-9-yl)butyl][3-(dimethylamino)-2,2-dimethylpropyl]amino}sulfonyl)phenyl]acetic acid] | 175 to 176
9 | CCCCOc1nc(N)c2[nH]c(=O)n(CCCNS(=O)(=O)c3cccc(CC(=O)OC)c3)c2n1 [Example 2-21, Methyl [3-({[3-(6-amino-2-butoxy-8-oxo-7,8-dihydro-9H-purin-9-yl)propyl]amino}sulfonyl)phenyl]acetate] | 218 to 219
10 | CCCCOc1nc(N)c2[nH]c(=O)n(CCCCN(CC(C)(C)O)S(=O)(=O)c3cccc(CC(=O)OC)c3)c2n1 [Example 2-22, Methyl (3-{[[4-(6-amino-2-butoxy-8-oxo-7,8-dihydro-9H-purin-9-yl)butyl](2-hydroxy-2-methylpropyl)amino]sulfonyl}phenyl)acetate] | 192 to 193
11 | CCCCOc1nc(N)c2[nH]c(=O)n(CCCCN(Cc3cccc(CC(=O)O)c3)CC(C)(C)CN(C)C)c2n1 [Example 2-32, [3-({[4-(6-Amino-2-butoxy-8-oxo-7,8-dihydro-9H-purin-9-yl)butyl][3-(dimethylamino)-2,2-dimethylpropyl]amino}methyl)phenyl]acetic acid] | 189 to 190
12 | CCCCOc1nc(N)c2[nH]c(=O)n(CCCCN(CCCN3CCCC3=O)Cc3cccc(CC(=O)OC)c3)c2n1 [Example 2-33, Methyl [3-({[4-(6-amino-2-butoxy-8-oxo-7,8-dihydro-9H-purin-9-yl)butyl][3-(2-oxopyrrolidin-1-yl)propyl]amino}methyl)phenyl]acetate] | 115 to 116
13 | CCCCOc1nc(N)c2[nH]c(=O)n(CCCCN(CCN3CCOCC3)Cc3cccc(CC(=O)OC)c3)c2n1 [Example 2-35, Methyl (3-{[[4-(6-amino-2-butoxy-8-oxo-7,8-dihydro-9H-purin-9-yl)butyl](2-morpholin-4-ylethyl)amino]methyl}phenyl)acetate] | 189 to 190
14 | CCCCOc1nc(N)c2[nH]c(=O)n(CCSc3cccc(CC(=O)OC)c3)c2n1 [Example 2-39, Methyl (3-{[2-(6-amino-2-butoxy-8-oxo-7,8-dihydro-9H-purin-9-yl)ethyl]thio}phenyl)acetate] | 232 to 233
15 | CCCCOc1nc(N)c2[nH]c(=O)n(CCSc3cccc(CC(=O)O)c3)c2n1 [Example 2-40, (3-{[2-(6-Amino-2-butoxy-8-oxo-7,8-dihydro-9H-purin-9-yl)ethyl]thio}phenyl)acetic acid] | 205 to 207
16 | CCCCOc1nc(N)c2[nH]c(=O)n(CCNc3cccc(CC(=O)OC)c3)c2n1 [Example 2-41, Methyl (3-{[2-(6-amino-2-butoxy-8-oxo-7,8-dihydro-9H-purin-9-yl)ethyl]amino}phenyl)acetate] | 222 to 223
17 | CCCCOc1nc(N)c2[nH]c(=O)n(CCCNc3cccc(CC(=O)OC)c3)c2n1 [Example 2-42, Methyl (3-{[3-(6-amino-2-butoxy-8-oxo-7,8-dihydro-9H-purin-9-yl)propyl]amino}phenyl)acetate] | 208 to 209
18 | CCCCOc1nc(N)c2[nH]c(=O)n(CCCNc3cccc(CC(=O)O)c3)c2n1 [Example 2-43, (3-{[3-(6-Amino-2-butoxy-8-oxo-7,8-dihydro-9H-purin-9-yl)propyl]amino}phenyl)acetic acid] | 247
19 | CCCCOc1nc(N)c2[nH]c(=O)n(CCS(=O)(=O)c3cccc(CC(=O)OC)c3)c2n1 [Example 2-48, Methyl (3-{[2-(6-amino-2-butoxy-8-oxo-7,8-dihydro-9H-purin-9-yl)ethyl]sulfonyl}phenyl)acetate] | 246 to 247
20 | CCCCOc1nc(N)c2[nH]c(=O)n(CCN(C)Cc3cccc(CC(=O)O)c3)c2n1 [Example 2-50, (3-{[[2-(6-Amino-2-butoxy-8-oxo-7,8-dihydro-9H-purin-9-yl)ethyl](methyl)amino]methyl}phenyl)acetic acid] | 164 to 166

Test system: rat spleen cells
Assay: cells
Format: cell-based
Details: 24 h, read-out: Minimum effective concentration (interferon inducing activity)

Row | Compound | minimal effective concentration [µM]
21 | CCCCOc1nc(N)c2[nH]c(=O)n(CCOc3cccc(C(=O)O)c3)c2n1 [Comparison Example 1, 2-butoxy-8-oxo-9-[2-(3-hydroxycarbonylphenoxy)ethyl]adenine, reference compound] | 0.01
22 | CCCCOc1nc(N)c2[nH]c(=O)n(CCOc3cccc(CC(=O)O)c3)c2n1 [Comparison Example 2, 2-butoxy-8-oxo-9-[2-(3-hydroxycarbonylmethylphenoxy)ethyl]adenine, reference compound] | 0.03
23 | CCCCOc1nc(N)c2[nH]c(=O)n(CCOc3ccccc3C(=O)O)c2n1 [Comparison Example 3, 2-butoxy-8-oxo-9-[2-(2-hydroxycarbonylphenoxy)ethyl]adenine, reference compound] | 0.1
24 | CCCCOc1nc(N)c2[nH]c(=O)n(CCOc3ccccc3CC(=O)O)c2n1 [Comparison Example 4, 2-butoxy-8-oxo-9-[2-(2-hydroxycarbonylmethylphenoxy)ethyl]adenine, reference compound] | 0.1
25 | CCCCOc1nc(N)c2[nH]c(=O)n(CCCCNS(=O)(=O)c3cccc(C(=O)O)c3)c2n1 [Comparison Example 8, 2-butoxy-8-oxo-9-[4-(3-hydroxycarbonylbenzenesulfonamide)butyl]adenine, reference compound] | 0.1
26 | CCCCOc1nc(N)c2nc(O)n(CCCCNS(=O)(=O)c3cccc(CC(=O)O)c3)c2n1 [Comparison Example 9, 2-butoxy-8-oxo-9-[4-(3-hydroxycarbonylmethylbenzenesulfonamide)butyl]adenine, reference compound] | 0.3
27 | CCCCOc1nc(N)c2[nH]c(=O)n(CCCCNC(=O)Nc3cccc(C(=O)O)c3)c2n1 [Comparison Example 10, 2-butoxy-8-oxo-9-[4-(3-hydroxycarbonylphenylaminocarbonylamino)butyl]adenine, reference compound] | 0.3
28 | CCCCOc1nc(N)c2[nH]c(=O)n(CCCCNC(=O)Nc3cccc(CC(=O)O)c3)c2n1 [Comparison Example 11, 2-butoxy-8-oxo-9-[4-(3-hydroxycarbonylmethylphenylaminocarbonylamino)butyl]adenine, reference compound] | 0.1
29 | CCCCOc1nc(N)c2[nH]c(=O)n(CCCCNC(=O)Nc3cccc(CC(=O)OC)c3)c2n1 [Example 11, 2-butoxy-8-oxo-9-[4-(3-methoxycarbonylmethylphenylaminocarbonylamino)butyl]adenine] | 0.01
